Patent US6355799B1, “Substituted benzene compounds, process for their preparation, and herbicidal and defoliant compositions containing them” (ISK Americas Incorporated, priority 1997, dated 2002)

Key:
Type in all cases: in vivo
[1] = system: johnsongrass (Sorghum halepense, SORHA); experiment: Post-emerge test, greenhouse herbicide activity screening; conditions: rating scale 0-100 (0 no damage, 100 complete death), 14 days after application
Summary of the method: (§1)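 Fourteen days after spraying, crop and weed injury was graded visually from 0, no effect, to 100, every plant dead. Test substances were dissolved in acetone and applied at 15–1000 g ai/ha with a flat-fan nozzle. Application was either pre-emergence, one day after sowing, or post-emergence at the 2–3 leaf stage.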

[2] = system: lambsquarters (Chenopodium album, CHEAL); experiment: as above; conditions: rating scale 0-100 (0 no damage, 100 complete death), 14 days after application
Summary of the method: as §1

[3] = system: large crabgrass (Digitaria sanguinalis, DIGSA); experiment: as above; conditions: rating scale 0-100 (0 no damage, 100 complete death), 14 days after application
Summary of the method: as §1

[4] = system: common ragweed (Ambrosia artemisizfolia L., AMBEL); experiment: as above; conditions: rating scale 0-100 (0 no damage, 100 complete death), 14 days after application
Summary of the method: as §1

[5] = system: redroot pigweed (Amaranthus retroflexus, AMARE); experiment: as above; conditions: rating scale 0-100 (0 no damage, 100 complete death), 14 days after application
Summary of the method: as §1

[6] = system: green foxtail (Setaria viridis, SETVI); experiment: as above; conditions: rating scale 0-100 (0 no damage, 100 complete death), 14 days after application
Summary of the method: as §1

[7] = system: velvetleaf (Abutilon theophrasti, ABUTH); experiment: as above; conditions: rating scale 0-100 (0 no damage, 100 complete death), 14 days after application
Summary of the method: as §1

[8] = system: barnyardgrass (Echinochloa crus-galli, ECHCG); experiment: as above; conditions: rating scale 0-100 (0 no damage, 100 complete death), 14 days after application
Summary of the method: as §1

[9] = system: ivyleaf morningglory (Ipomoea hederacea, IPOHE); experiment: as above; conditions: rating scale 0-100 (0 no damage, 100 complete death), 14 days after application
Summary of the method: as §1

[10] = system: sicklepod (Cassia obtusifolia, CASOB); experiment: as above; conditions: rating scale 0-100 (0 no damage, 100 complete death), 14 days after application
Summary of the method: as §1

[11] = system: johnsongrass (Sorghum halepense, SORHA); experiment: Pre-emerge test, greenhouse herbicide activity screening; conditions: rating scale 0-100, 14 days after application
Summary of the method: (§2)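 Compounds in acetone were track-sprayed at 15–1000 g ai/ha: pre-emergence onto soil sown the previous day, then top-watered to incorporate and later bottom-watered; post-emergence onto 2–3 leaf plants with 0.25% v/v surfactant, bottom-watered only. Ratings on a 0–100 phytotoxicity scale were taken at day 14.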

[12] = system: lambsquarters (Chenopodium album, CHEAL); experiment: as above; conditions: rating scale 0-100, 14 days after application
Summary of the method: as §2

[13] = system: large crabgrass (Digitaria sanguinalis, DIGSA); experiment: as above; conditions: rating scale 0-100, 14 days after application
Summary of the method: as §2

[14] = system: common ragweed (Ambrosia artemisizfolia L., AMBEL); experiment: as above; conditions: rating scale 0-100, 14 days after application
Summary of the method: as §2

[15] = system: green foxtail (Setaria viridis, SETVI); experiment: as above; conditions: rating scale 0-100, 14 days after application
Summary of the method: as §2

[16] = system: velvetleaf (Abutilon theophrasti, ABUTH); experiment: as above; conditions: rating scale 0-100, 14 days after application
Summary of the method: as §2

[17] = system: barnyardgrass (Echinochloa crus-galli, ECHCG); experiment: as above; conditions: rating scale 0-100, 14 days after application
Summary of the method: as §2

[18] = system: ivyleaf morningglory (Ipomoea hederacea, IPOHE); experiment: as above; conditions: rating scale 0-100, 14 days after application
Summary of the method: as §2

[19] = system: sicklepod (Cassia obtusifolia, CASOB); experiment: as above; conditions: rating scale 0-100, 14 days after application
Summary of the method: as §2

[20] = system: field corn (Zea mays L., var. Dekalb 535, CORN); experiment: Pre-emerge test, crop safety; conditions: rating scale 0-100, 14 days after application
Summary of the method: (§3)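 Visual ratings on a 0-100 scale (0 no damage, 100 all plants dead) were taken at 14 days after treatment. Rates of 15-1000 g ai/ha in acetone, 187 l/ha, were sprayed onto soil one day after planting (pre-emerge) or onto 2-3 leaf plants with 0.25% v/v surfactant (post-emerge).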

[21] = system: upland rice (Oryza sp., var. Tebonnet, RICE); experiment: Pre-emerge test, crop safety; conditions: rating scale 0-100, 14 days after application
Summary of the method: as §3

[22] = system: redroot pigweed (Amaranthus retroflexus, AMARE); experiment: Pre-emerge test, greenhouse herbicide activity screening; conditions: rating scale 0-100, 14 days after application
Summary of the method: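 Plants grown in 10 cm pots of sandy loam mix received acetone-dissolved compounds through a moving flat-fan nozzle. Doses ranged from 15 to 1000 g ai/ha. Pre-emerge pots were seeded one day earlier, post-emerge pots 8–21 days earlier. Fourteen days on, each pot was graded 0–100 for damage.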

[23] = system: field corn (Zea mays L., var. Dekalb 535, CORN); experiment: Post-emerge test, crop safety; conditions: rating scale 0-100 (0 no damage, 100 complete death), 14 days after application
Summary of the method: (§4)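 Rating: 0–100 visual injury, 14 DAA. Application: acetone, 187 l/ha, 15–1000 g ai/ha, flat-fan track sprayer with nozzle 40–45 cm above soil or canopy. Post-emerge runs used 0.25% v/v surfactant on 2–3 leaf plants.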

[24] = system: upland rice (Oryza sp., var. Tebonnet, RICE); experiment: Post-emerge test, crop safety; conditions: rating scale 0-100 (0 no damage, 100 complete death), 14 days after application
Summary of the method: as §4

For `COc1c(Cl)cc(F)c(-n2c(=O)cc(C(F)(F)F)n(C)c2=O)c1CC(Cl)C(=O)OC(C)(C)C` (stereo not drawn) [14-18], the “Post-emerge Herbicidal Activity, phytotoxicity rating SORHA” value ([1]; Rate 63 g ai/ha) was 10, the “Post-emerge Herbicidal Activity, phytotoxicity rating SORHA” value ([1]; Rate 250 g ai/ha) was 30 and the “Post-emerge Herbicidal Activity, phytotoxicity rating CHEAL” value ([2]; Rate 63 g ai/ha) was 99. The “Post-emerge Herbicidal Activity, phytotoxicity rating CHEAL” value ([2]; Rate 250 g ai/ha) was 100, the “Post-emerge Herbicidal Activity, phytotoxicity rating DIGSA” value ([3]; Rate 63 g ai/ha) was 20 and the “Post-emerge Herbicidal Activity, phytotoxicity rating DIGSA” value ([3]; Rate 250 g ai/ha) was 60. For the same compound, the “Post-emerge Herbicidal Activity, phytotoxicity rating AMBEL” value ([4]; Rate 63 g ai/ha) was 0, the “Post-emerge Herbicidal Activity, phytotoxicity rating AMBEL” value ([4]; Rate 250 g ai/ha) was 10 and the “Post-emerge Herbicidal Activity, phytotoxicity rating AMARE” value ([5]; Rate 63 g ai/ha) was 100. For the same compound, the “Post-emerge Herbicidal Activity, phytotoxicity rating AMARE” value ([5]; Rate 250 g ai/ha) was 100, the “Post-emerge Herbicidal Activity, phytotoxicity rating SETVI” value ([6]; Rate 63 g ai/ha) was 10 and the “Post-emerge Herbicidal Activity, phytotoxicity rating SETVI” value ([6]; Rate 250 g ai/ha) was 20. The “Post-emerge Herbicidal Activity, phytotoxicity rating ABUTH” value ([7]; Rate 63 g ai/ha) was 30, the “Post-emerge Herbicidal Activity, phytotoxicity rating ABUTH” value ([7]; Rate 250 g ai/ha) was 60 and the “Post-emerge Herbicidal Activity, phytotoxicity rating ECHCG” value ([8]; Rate 63 g ai/ha) was 99. The “Post-emerge Herbicidal Activity, phytotoxicity rating ECHCG” value ([8]; Rate 250 g ai/ha) was 100, the “Post-emerge Herbicidal Activity, phytotoxicity rating IPOHE” value ([9]; Rate 63 g ai/ha) was 30 and the “Post-emerge Herbicidal Activity, phytotoxicity rating IPOHE” value ([9]; Rate 250 g ai/ha) was 60. For the same compound, the “Post-emerge Herbicidal Activity, phytotoxicity rating CASOB” value ([10]; Rate 63 g ai/ha) was 20, the “Post-emerge Herbicidal Activity, phytotoxicity rating CASOB” value ([10]; Rate 250 g ai/ha) was 60 and the “Pre-emerge herbicidal activity, phytotoxicity rating SORHA” value ([11]; 63 g ai/ha) was 0. For the same compound, the “Pre-emerge herbicidal activity, phytotoxicity rating SORHA” value ([11]; 250 g ai/ha) was 10, the “Pre-emerge herbicidal activity, phytotoxicity rating CHEAL” value ([12]; 63 g ai/ha) was 100 and the “Pre-emerge herbicidal activity, phytotoxicity rating CHEAL” value ([12]; 250 g ai/ha) was 100. For the same compound, the “Pre-emerge herbicidal activity, phytotoxicity rating DIGSA” value ([13]; 63 g ai/ha) was 0, the “Pre-emerge herbicidal activity, phytotoxicity rating DIGSA” value ([13]; 250 g ai/ha) was 90 and the “Pre-emerge herbicidal activity, phytotoxicity rating AMBEL” value ([14]; 63 g ai/ha) was 0. For the same compound, the “Pre-emerge herbicidal activity, phytotoxicity rating AMBEL” value ([14]; 250 g ai/ha) was 70, the “Pre-emerge herbicidal activity, phytotoxicity rating SETVI” value ([15]; 63 g ai/ha) was 0 and the “Pre-emerge herbicidal activity, phytotoxicity rating SETVI” value ([15]; 250 g ai/ha) was 20. For the same compound, the “Pre-emerge herbicidal activity, phytotoxicity rating ABUTH” value ([16]; 63 g ai/ha) was 40, the “Pre-emerge herbicidal activity, phytotoxicity rating ABUTH” value ([16]; 250 g ai/ha) was 70 and the “Pre-emerge herbicidal activity, phytotoxicity rating ECHCG” value ([17]; 63 g ai/ha) was 0. For the same compound, the “Pre-emerge herbicidal activity, phytotoxicity rating ECHCG” value ([17]; 250 g ai/ha) was 20, the “Pre-emerge herbicidal activity, phytotoxicity rating IPOHE” value ([18]; 63 g ai/ha) was 0 and the “Pre-emerge herbicidal activity, phytotoxicity rating IPOHE” value ([18]; 250 g ai/ha) was 20. For the same compound, the “Pre-emerge herbicidal activity, phytotoxicity rating CASOB” value ([19]; 63 g ai/ha) was 0, the “Pre-emerge herbicidal activity, phytotoxicity rating CASOB” value ([19]; 250 g ai/ha) was 20 and the “Pre-emerge phytotoxicity rating, crop damage CORN” value ([20]; 63 g ai/ha) was 0. The “Pre-emerge phytotoxicity rating, crop damage CORN” value ([20]; 250 g ai/ha) was 0, the “Pre-emerge phytotoxicity rating, crop damage RICE” value ([21]; 63 g ai/ha) was 0 and the “Pre-emerge phytotoxicity rating, crop damage RICE” value ([21]; 250 g ai/ha) was 10. For the same compound, the “Pre-emerge herbicidal activity, phytotoxicity rating AMARE” value ([22]; 63 g ai/ha) was 100, the “Pre-emerge herbicidal activity, phytotoxicity rating AMARE” value ([22]; 250 g ai/ha) was 100 and the “Post-emerge phytotoxicity rating CORN (crop damage)” value ([23]; Rate 63 g ai/ha) was 20. The “Post-emerge phytotoxicity rating CORN (crop damage)” value ([23]; Rate 250 g ai/ha) was 50, the “Post-emerge phytotoxicity rating RICE (crop damage)” value ([24]; Rate 63 g ai/ha) was 10 and the “Post-emerge phytotoxicity rating RICE (crop damage)” value ([24]; Rate 250 g ai/ha) was 25.
